Laboratory results taken from publication PMC11851430, “Workflow for E3 Ligase Ligand Validation for PROTAC Development” (ACS Chemical Biology, 2025).

Experiments:
Test in all cases: DSF assay
Assay type in all cases: binding
Details in all cases: 20 µM compound
DMPK1A = target: T1, DMPK1A (Homo sapiens, UniProt Q09013)
T1 construct: purchased in-house DSF panel (SGC-style construct names; the trailing A/B is a construct suffix)
T1 sequence (Q09013 1-629): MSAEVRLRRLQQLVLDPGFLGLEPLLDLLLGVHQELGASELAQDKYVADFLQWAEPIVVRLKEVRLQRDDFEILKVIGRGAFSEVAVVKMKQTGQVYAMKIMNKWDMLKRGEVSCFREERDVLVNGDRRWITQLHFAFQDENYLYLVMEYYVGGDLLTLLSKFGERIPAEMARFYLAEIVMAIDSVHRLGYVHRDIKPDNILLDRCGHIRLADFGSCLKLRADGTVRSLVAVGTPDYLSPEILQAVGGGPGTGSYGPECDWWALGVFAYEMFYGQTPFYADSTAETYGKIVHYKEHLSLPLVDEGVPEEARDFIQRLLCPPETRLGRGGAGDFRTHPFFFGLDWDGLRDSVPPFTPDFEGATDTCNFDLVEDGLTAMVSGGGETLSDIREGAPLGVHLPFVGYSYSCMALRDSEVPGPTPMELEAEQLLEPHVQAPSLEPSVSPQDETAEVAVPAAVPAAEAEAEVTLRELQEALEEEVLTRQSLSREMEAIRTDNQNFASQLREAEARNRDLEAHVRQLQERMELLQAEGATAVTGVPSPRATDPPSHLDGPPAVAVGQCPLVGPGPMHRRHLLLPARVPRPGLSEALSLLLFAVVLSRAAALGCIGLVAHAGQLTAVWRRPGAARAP

PHKG2A = target: T2, PHKG2A (Homo sapiens, UniProt P15735)
T2 construct: purchased in-house DSF panel (SGC-style construct names; the trailing A/B is a construct suffix)
T2 sequence (P15735 6-293): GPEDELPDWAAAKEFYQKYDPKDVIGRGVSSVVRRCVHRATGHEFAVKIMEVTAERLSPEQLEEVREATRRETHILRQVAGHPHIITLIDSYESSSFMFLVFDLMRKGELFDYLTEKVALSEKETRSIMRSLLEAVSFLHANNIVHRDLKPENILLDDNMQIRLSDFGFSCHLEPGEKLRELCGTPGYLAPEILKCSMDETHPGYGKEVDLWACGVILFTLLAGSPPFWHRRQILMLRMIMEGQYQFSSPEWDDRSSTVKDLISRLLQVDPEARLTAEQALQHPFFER

RPS6K5A = test system: RPS6K5A
GAKA = target: T3, GAKA (Homo sapiens, UniProt O14976)
T3 construct: purchased in-house DSF panel (SGC-style construct names; the trailing A/B is a construct suffix)
T3 sequence (O14976 14-351): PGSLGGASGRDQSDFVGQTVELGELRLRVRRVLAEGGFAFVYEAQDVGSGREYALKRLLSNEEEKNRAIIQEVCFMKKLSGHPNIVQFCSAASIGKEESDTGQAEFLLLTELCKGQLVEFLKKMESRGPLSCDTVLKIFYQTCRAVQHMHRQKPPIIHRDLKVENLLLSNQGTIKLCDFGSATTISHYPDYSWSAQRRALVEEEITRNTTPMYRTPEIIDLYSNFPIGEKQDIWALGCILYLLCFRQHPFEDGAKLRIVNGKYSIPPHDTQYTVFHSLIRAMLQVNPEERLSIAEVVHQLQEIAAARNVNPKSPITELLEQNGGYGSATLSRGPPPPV

GPRK5A = GPRK5A (Homo sapiens, UniProt P34947)
Sequence of GPRK5A (P34947 186-514 limits assumed): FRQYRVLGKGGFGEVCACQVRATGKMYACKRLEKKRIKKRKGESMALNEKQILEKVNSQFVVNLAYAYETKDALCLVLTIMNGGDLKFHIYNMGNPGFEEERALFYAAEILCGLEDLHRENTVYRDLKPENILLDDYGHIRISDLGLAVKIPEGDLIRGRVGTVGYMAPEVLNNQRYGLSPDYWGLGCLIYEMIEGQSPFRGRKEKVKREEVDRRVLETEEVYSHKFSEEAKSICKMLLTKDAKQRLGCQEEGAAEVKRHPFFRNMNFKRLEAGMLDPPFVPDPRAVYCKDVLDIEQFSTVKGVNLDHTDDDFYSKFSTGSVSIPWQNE

AKT3A = target: T4, AKT3A (Homo sapiens, UniProt Q9Y243)
T4 construct: purchased in-house DSF panel (SGC-style construct names; the trailing A/B is a construct suffix)
T4 sequence (Q9Y243 141-479): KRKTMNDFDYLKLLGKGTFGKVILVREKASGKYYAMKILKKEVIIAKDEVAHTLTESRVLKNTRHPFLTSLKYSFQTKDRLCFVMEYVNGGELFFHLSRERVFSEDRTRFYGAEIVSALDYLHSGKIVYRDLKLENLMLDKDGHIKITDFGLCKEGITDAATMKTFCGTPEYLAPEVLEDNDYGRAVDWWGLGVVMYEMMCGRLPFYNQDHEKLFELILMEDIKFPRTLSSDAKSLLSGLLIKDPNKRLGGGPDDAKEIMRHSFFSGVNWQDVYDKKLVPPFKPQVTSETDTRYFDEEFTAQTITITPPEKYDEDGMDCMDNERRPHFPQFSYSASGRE

WNK1A = target: T5, WNK1A (Homo sapiens, UniProt Q9H4A3)
T5 construct: purchased in-house DSF panel (SGC-style construct names; the trailing A/B is a construct suffix)
T5 sequence (Q9H4A3 206-483): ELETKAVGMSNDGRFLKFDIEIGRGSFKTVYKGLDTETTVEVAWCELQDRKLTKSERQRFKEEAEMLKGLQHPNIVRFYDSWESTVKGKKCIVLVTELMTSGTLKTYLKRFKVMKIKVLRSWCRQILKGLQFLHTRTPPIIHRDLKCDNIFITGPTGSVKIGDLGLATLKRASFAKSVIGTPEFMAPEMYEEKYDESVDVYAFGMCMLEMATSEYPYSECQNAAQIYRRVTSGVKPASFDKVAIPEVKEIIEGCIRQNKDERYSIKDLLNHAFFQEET

MAPKAPK2A = target: T6, MAPKAPK2A (Homo sapiens, UniProt P49137)
T6 construct: purchased in-house DSF panel (SGC-style construct names; the trailing A/B is a construct suffix)
T6 sequence (P49137 64-325): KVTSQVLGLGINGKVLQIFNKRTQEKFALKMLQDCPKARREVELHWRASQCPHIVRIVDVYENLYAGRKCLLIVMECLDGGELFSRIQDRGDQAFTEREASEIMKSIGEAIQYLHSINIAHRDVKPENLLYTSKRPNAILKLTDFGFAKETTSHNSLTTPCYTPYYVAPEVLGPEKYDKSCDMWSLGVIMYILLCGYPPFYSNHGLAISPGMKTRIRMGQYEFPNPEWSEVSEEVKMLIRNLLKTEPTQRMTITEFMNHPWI

DCAMKL1A = target: T7, DCAMKL1A (Homo sapiens, UniProt O15075)
T7 construct: purchased in-house DSF panel (SGC-style construct names; the trailing A/B is a construct suffix)
T7 sequence (O15075 372-649): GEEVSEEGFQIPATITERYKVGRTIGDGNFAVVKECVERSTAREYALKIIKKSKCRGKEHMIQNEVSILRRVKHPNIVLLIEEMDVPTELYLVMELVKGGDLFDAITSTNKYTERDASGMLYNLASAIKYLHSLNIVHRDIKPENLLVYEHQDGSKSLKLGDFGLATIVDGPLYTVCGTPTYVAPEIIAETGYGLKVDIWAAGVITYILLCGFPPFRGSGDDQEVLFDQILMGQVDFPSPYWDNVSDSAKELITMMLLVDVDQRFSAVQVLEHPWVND

CHEK2A = target: T8, CHEK2A (Homo sapiens, UniProt O96017)
T8 construct: purchased in-house DSF panel (SGC-style construct names; the trailing A/B is a construct suffix)
T8 sequence (O96017 210-531): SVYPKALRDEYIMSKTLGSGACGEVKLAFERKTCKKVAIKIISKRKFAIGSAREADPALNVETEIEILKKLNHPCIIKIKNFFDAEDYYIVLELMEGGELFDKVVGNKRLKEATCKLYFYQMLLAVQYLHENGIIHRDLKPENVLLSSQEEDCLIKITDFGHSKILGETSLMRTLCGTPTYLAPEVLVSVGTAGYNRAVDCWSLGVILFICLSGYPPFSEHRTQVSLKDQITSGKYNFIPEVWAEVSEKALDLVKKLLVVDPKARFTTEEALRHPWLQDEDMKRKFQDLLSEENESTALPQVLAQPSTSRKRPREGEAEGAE

TAF1A = test system: TAF1A
NEK1A = target: T9, NEK1A (Homo sapiens, UniProt Q96PY6)
T9 construct: purchased in-house DSF panel (SGC-style construct names; the trailing A/B is a construct suffix)
T9 sequence (Q96PY6 1-328): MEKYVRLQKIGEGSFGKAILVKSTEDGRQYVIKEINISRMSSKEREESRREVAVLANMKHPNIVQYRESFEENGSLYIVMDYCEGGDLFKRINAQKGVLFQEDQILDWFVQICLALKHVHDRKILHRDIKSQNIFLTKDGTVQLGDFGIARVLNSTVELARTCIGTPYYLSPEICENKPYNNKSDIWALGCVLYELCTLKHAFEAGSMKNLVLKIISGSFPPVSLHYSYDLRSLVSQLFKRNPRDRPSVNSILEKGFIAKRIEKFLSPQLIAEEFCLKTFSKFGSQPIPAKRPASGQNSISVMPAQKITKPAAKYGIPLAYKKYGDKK

RIOK1A = target: T10, RIOK1A (Homo sapiens, UniProt Q9BRS2)
T10 construct: purchased in-house DSF panel (SGC-style construct names; the trailing A/B is a construct suffix)
T10 sequence (Q9BRS2 143-494): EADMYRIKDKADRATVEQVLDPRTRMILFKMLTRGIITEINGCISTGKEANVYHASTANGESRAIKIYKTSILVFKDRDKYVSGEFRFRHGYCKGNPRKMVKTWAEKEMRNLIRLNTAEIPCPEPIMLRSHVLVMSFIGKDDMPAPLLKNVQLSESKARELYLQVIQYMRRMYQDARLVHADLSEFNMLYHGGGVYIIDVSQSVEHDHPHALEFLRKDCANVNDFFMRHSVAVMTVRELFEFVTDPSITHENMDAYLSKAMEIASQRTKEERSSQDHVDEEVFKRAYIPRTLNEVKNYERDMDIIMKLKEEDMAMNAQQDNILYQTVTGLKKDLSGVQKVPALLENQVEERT

BMXA = target: T11, BMXA (Homo sapiens, UniProt P51813)
T11 construct: purchased in-house DSF panel (SGC-style construct names; the trailing A/B is a construct suffix)
T11 sequence (P51813 411-675): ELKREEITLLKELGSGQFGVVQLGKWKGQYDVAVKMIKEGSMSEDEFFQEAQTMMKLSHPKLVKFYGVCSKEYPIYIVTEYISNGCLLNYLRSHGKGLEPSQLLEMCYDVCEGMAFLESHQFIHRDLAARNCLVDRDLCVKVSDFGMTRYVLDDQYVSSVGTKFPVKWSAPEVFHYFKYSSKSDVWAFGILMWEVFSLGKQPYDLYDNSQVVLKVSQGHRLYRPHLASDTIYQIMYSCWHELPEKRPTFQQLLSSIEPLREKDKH

BRAFA = target: T12, BRAFA (Homo sapiens, UniProt P15056)
T12 construct: purchased in-house DSF panel (SGC-style construct names; the trailing A/B is a construct suffix)
T12 sequence (P15056 448-723): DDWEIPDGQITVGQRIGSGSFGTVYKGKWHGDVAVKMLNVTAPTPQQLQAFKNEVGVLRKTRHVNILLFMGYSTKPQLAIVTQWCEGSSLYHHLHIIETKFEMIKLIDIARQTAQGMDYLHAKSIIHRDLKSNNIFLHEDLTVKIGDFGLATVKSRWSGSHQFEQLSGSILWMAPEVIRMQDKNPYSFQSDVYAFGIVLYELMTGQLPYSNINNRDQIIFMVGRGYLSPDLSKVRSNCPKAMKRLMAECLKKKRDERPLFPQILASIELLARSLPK

Structure (SMILES)	ΔTm at 20 µM (DMPK1A) [°C]	ΔTm at 20 µM (PHKG2A) [°C]	ΔTm (RPS6K5A) [°C]	ΔTm at 20 µM (GAKA) [°C]	ΔTm at 20 µM (GPRK5A) [°C]	ΔTm at 20 µM (AKT3A) [°C]	ΔTm at 20 µM (WNK1A) [°C]	ΔTm at 20 µM (MAPKAPK2A) [°C]	ΔTm at 20 µM (DCAMKL1A) [°C]	ΔTm at 20 µM (CHEK2A) [°C]	ΔTm (TAF1A) [°C]	ΔTm at 20 µM (NEK1A) [°C]	ΔTm at 20 µM (RIOK1A) [°C]	ΔTm at 20 µM (BMXA) [°C]	ΔTm at 20 µM (BRAFA) [°C]
CCOC(=O)c1cc(Nc2cc(C3CC3)[nH]n2)nc(Nc2ccc(CC#N)cc2)n1 [compound 5]	3.8	7.46	14.62	4.56	1.7	1.18	0.55	0.53	0.68	4.17	0.35	0.62	4.9	2.01	1.72
CC(C)(C)OC(=O)NCCCOCCOCCOCCCNC(=O)c1cc(Nc2cc(C3CC3)[nH]n2)nc(Nc2ccc(CC#N)cc2)n1 [5-L]	3.69	5.86	11.21	3.75	2.55	0.12	0.56	0.95	4.7	5.41	0.26	0.017	5.35	1.62	2.09
CC(C)(C)OC(=O)NCCOCCOCCOCCOCCC(=O)N1CCN(c2cc(Nc3cc(C4CC4)[nH]n3)nc(Nc3ccc(CC#N)cc3)n2)CC1 [4-L]	3.19	8.76	9.52	5.92	2.06	0.51	1.05	0.42	0.22	6.36	-0.59	0.45	-0.05	5.53	1.63
